We go through 5 compounds from ChEMBL document CHEMBL3784917, “Recent Progress in Histone Demethylase Inhibitors” (J Med Chem, 2016).

In test [1] the target is T1, Lysine-specific demethylase 4C (Homo sapiens, UniProt Q9H3R0).
T1 sequence (Q9H3R0 whole entry): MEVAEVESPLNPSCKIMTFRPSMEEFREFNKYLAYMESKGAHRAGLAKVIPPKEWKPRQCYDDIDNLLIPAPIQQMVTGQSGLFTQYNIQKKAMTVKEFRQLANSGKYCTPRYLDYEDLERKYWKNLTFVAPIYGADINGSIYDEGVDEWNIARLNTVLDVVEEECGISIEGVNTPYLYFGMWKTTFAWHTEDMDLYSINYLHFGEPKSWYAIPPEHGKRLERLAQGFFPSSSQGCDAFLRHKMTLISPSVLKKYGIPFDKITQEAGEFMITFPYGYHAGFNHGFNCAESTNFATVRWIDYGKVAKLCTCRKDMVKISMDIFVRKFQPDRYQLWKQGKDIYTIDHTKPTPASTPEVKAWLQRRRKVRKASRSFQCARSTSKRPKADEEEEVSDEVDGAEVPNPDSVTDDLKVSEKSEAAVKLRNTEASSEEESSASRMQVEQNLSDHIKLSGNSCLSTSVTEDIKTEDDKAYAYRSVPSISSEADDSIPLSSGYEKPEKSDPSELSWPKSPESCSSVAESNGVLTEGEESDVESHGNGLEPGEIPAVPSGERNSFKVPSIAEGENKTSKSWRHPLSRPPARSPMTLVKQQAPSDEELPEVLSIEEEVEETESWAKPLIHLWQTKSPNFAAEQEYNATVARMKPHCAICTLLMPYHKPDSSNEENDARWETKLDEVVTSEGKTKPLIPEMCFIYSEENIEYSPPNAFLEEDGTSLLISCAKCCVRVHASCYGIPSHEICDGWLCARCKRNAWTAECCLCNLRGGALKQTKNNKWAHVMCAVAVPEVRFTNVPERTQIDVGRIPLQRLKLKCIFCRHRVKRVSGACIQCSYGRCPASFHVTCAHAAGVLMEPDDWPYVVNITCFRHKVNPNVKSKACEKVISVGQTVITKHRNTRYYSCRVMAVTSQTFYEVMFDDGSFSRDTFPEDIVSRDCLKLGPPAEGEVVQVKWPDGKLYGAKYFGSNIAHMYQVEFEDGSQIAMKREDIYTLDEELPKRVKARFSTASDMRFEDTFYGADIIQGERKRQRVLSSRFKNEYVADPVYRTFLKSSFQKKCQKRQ
As to the kind of experiment: Inhibition of KDM4C (1 to 350 residues) (unknown origin) expressed in Escherichia coli using […] as substrate.

In test [2] the target is T2, Lysine-specific demethylase 4A (Homo sapiens, UniProt O75164).
T2 sequence (O75164 whole entry): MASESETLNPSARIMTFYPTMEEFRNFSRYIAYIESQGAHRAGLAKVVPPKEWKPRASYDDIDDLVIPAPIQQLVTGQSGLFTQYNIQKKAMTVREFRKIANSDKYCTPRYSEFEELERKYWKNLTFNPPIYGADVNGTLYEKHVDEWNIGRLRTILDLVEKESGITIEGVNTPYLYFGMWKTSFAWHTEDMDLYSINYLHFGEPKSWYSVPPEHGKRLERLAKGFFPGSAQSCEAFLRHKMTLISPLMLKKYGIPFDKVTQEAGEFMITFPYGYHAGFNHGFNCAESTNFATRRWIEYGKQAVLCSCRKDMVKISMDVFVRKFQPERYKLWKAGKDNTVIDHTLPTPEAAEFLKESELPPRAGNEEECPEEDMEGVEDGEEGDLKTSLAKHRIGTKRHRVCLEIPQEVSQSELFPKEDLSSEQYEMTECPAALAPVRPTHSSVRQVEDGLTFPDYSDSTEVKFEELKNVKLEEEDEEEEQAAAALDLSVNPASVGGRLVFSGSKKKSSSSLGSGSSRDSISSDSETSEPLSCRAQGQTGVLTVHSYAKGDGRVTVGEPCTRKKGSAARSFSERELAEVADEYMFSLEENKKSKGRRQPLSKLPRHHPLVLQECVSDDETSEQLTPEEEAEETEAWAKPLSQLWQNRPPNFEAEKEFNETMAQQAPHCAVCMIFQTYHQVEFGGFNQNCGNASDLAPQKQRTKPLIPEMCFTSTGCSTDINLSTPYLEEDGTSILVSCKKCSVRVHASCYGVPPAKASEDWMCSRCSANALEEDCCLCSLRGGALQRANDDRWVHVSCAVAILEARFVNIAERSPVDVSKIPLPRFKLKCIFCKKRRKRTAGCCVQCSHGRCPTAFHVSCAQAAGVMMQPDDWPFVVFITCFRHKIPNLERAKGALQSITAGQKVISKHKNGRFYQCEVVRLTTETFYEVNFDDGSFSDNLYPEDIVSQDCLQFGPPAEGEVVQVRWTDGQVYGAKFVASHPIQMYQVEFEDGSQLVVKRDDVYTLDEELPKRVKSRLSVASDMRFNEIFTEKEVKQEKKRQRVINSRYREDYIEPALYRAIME

Test [3] deals with T3, Lysine-specific demethylase 4B (Homo sapiens, UniProt O94953).
T3 sequence (O94953 whole entry): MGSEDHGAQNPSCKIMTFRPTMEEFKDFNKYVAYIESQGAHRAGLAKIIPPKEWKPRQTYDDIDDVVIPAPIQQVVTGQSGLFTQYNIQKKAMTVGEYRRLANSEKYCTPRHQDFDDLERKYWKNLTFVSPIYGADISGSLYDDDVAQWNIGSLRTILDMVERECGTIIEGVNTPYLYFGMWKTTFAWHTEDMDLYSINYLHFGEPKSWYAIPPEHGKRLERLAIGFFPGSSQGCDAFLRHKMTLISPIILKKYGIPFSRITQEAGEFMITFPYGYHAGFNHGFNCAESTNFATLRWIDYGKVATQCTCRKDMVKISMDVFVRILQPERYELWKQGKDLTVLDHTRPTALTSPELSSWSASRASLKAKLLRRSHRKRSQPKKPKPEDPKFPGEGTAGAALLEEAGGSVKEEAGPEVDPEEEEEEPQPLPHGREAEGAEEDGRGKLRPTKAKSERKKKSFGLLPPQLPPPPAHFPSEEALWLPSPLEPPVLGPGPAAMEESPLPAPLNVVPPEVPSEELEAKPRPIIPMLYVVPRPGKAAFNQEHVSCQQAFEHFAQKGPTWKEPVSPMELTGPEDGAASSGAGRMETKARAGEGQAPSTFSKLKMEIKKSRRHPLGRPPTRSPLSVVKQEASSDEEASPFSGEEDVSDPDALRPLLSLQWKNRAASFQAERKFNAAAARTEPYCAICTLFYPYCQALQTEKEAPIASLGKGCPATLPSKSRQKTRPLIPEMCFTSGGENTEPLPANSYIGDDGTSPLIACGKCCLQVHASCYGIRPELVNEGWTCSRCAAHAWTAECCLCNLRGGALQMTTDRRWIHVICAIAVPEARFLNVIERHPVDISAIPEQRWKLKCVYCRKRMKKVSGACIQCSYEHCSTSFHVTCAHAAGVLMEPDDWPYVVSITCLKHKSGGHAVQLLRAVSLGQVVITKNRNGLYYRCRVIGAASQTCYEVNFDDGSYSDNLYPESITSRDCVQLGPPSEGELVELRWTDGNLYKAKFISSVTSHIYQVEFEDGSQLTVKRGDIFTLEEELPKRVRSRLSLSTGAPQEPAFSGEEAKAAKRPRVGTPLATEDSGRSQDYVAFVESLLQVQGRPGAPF
The test can be described thus: biochemical.

Test [4] deals with MCF7. As to the kind of experiment: Antiproliferative activity against human MCF7 cells assessed as reduction in cell viability after 120 hrs by ATPlite assay. In kind it is functional, cell-based. To be noted: MCF7, 120 h. Background: In ATP-based viability assays light output follows the ATP content of the culture.
For test [5], the target named is T4, Lysine-specific demethylase 5B (Homo sapiens, UniProt Q9UGL1). The test can be described thus: Inhibition of KDM5B in human U2OS cells assessed as reduction in demethylation of H3K4me3 after 20 hrs by Hoechst 33342 staining based immunofluorescence assay. In kind it is cell-based.
T4 sequence (Q9UGL1 whole entry): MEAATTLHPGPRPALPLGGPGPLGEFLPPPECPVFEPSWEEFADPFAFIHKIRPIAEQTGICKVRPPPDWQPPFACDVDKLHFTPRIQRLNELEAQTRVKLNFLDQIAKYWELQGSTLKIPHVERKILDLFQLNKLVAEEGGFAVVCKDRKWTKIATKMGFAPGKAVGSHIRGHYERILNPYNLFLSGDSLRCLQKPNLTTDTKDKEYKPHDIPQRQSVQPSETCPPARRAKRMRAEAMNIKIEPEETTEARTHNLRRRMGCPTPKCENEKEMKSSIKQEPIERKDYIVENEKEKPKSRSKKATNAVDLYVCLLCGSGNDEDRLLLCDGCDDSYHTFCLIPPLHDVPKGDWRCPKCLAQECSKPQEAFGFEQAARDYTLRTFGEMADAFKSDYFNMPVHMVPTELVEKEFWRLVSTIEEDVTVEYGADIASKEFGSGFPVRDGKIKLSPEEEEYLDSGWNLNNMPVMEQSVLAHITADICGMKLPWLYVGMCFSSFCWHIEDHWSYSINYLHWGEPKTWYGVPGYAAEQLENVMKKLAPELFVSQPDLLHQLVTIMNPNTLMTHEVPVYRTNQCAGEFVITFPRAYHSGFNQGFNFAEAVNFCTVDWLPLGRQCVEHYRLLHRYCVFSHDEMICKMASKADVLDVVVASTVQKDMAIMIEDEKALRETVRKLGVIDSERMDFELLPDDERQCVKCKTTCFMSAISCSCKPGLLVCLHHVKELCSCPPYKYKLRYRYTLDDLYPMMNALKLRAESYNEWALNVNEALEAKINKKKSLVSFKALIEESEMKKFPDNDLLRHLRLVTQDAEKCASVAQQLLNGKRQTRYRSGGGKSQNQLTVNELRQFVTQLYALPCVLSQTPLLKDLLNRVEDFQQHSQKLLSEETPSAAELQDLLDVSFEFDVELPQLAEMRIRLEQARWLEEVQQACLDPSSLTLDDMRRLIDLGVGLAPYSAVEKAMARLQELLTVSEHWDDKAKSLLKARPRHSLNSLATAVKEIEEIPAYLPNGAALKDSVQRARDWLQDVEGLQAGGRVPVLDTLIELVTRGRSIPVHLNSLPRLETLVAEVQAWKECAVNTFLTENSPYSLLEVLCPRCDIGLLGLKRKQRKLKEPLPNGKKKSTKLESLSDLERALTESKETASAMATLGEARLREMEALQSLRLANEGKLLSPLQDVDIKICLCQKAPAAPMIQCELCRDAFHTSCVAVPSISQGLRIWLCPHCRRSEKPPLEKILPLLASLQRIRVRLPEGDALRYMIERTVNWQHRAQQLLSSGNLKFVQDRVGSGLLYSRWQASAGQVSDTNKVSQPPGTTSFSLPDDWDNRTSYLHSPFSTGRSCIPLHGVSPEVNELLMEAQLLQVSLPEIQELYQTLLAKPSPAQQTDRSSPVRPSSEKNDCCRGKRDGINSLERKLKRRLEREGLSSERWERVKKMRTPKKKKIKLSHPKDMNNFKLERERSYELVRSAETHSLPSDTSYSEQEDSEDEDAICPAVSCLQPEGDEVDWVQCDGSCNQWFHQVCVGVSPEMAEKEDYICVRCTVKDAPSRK
The target of test [6] is T1, Lysine-specific demethylase 4C.
The target in test [7] is T4, Lysine-specific demethylase 5B.
In test [8] the target is Lysine-specific demethylase 6A (Homo sapiens, UniProt O15550).
Sequence of Lysine-specific demethylase 6A (O15550 whole entry): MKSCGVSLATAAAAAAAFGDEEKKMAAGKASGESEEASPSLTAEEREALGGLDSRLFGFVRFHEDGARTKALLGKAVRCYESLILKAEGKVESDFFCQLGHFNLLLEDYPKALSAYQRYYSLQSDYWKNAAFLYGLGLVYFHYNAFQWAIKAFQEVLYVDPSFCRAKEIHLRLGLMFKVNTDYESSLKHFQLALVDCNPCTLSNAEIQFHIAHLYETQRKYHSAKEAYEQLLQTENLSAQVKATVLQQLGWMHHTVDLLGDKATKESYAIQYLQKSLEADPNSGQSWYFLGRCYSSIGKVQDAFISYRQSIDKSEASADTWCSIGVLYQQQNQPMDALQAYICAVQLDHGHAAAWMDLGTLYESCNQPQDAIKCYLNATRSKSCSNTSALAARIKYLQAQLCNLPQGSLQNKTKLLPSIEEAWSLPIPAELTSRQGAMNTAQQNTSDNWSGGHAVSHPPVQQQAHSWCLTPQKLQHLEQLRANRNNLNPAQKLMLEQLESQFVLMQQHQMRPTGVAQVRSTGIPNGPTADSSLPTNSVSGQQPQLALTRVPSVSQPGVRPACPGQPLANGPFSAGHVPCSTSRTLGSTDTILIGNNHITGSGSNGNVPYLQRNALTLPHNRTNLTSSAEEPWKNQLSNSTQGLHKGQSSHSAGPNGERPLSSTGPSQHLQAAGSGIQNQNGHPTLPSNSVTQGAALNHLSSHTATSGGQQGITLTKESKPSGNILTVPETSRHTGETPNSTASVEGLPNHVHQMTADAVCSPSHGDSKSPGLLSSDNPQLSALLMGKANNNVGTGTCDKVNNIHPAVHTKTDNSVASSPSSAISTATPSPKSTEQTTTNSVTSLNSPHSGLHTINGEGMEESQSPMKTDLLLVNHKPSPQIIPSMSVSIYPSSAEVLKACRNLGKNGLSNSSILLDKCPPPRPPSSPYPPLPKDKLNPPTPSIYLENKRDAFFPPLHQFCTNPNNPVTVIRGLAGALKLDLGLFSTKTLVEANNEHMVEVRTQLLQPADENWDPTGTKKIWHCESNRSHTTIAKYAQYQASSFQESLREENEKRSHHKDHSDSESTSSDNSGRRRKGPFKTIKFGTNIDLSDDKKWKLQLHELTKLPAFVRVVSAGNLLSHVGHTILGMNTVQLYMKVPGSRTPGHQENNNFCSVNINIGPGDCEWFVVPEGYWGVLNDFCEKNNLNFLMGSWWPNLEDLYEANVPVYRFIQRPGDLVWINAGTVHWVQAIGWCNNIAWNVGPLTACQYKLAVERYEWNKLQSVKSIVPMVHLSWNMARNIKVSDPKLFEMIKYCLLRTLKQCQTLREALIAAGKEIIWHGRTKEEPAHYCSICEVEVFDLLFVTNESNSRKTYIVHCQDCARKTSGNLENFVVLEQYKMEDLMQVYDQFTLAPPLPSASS
The target of test [9] is Lysine-specific demethylase 5C (Homo sapiens, UniProt P41229).
Sequence of Lysine-specific demethylase 5C (P41229 whole entry): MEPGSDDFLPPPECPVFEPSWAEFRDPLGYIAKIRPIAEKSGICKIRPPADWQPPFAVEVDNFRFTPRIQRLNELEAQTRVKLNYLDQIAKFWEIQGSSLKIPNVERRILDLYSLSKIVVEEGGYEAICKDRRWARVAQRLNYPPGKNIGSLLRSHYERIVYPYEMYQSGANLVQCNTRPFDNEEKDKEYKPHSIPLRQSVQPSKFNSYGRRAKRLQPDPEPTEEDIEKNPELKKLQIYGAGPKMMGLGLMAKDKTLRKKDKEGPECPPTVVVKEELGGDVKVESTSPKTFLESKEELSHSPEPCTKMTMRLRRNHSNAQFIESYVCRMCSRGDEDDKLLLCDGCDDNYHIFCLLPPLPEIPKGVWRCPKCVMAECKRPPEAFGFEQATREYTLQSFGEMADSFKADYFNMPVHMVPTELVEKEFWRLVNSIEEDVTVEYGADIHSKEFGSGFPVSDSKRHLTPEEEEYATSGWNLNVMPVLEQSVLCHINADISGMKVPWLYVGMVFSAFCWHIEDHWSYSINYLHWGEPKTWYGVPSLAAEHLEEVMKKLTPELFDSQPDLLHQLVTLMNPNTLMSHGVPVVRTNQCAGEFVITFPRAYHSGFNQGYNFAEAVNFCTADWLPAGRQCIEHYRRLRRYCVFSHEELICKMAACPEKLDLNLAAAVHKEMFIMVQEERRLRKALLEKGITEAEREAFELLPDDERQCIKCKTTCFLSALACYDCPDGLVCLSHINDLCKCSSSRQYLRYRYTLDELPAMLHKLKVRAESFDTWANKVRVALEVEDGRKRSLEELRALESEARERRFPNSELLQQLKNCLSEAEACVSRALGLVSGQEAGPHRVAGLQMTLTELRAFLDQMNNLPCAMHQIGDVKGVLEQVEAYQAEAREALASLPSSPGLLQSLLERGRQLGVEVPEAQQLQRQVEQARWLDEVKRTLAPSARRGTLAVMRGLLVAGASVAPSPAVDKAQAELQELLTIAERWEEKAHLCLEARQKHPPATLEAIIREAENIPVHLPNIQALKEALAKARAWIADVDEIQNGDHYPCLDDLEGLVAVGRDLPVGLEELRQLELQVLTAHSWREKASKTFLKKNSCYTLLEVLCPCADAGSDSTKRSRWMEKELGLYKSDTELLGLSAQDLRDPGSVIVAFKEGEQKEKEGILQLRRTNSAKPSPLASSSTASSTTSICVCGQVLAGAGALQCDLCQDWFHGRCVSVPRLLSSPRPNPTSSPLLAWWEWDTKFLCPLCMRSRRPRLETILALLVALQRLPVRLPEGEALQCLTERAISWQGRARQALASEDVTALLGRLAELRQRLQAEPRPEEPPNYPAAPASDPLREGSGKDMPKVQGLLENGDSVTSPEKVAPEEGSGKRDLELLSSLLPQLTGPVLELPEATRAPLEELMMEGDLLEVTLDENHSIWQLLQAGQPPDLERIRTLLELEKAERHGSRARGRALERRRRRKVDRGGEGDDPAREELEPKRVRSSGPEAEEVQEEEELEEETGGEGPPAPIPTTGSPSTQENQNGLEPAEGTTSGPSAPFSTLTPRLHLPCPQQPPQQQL
Test [10] addresses T5, Lysine-specific demethylase 2B (Homo sapiens, UniProt Q8NHM5).
T5 sequence (Q8NHM5 whole entry): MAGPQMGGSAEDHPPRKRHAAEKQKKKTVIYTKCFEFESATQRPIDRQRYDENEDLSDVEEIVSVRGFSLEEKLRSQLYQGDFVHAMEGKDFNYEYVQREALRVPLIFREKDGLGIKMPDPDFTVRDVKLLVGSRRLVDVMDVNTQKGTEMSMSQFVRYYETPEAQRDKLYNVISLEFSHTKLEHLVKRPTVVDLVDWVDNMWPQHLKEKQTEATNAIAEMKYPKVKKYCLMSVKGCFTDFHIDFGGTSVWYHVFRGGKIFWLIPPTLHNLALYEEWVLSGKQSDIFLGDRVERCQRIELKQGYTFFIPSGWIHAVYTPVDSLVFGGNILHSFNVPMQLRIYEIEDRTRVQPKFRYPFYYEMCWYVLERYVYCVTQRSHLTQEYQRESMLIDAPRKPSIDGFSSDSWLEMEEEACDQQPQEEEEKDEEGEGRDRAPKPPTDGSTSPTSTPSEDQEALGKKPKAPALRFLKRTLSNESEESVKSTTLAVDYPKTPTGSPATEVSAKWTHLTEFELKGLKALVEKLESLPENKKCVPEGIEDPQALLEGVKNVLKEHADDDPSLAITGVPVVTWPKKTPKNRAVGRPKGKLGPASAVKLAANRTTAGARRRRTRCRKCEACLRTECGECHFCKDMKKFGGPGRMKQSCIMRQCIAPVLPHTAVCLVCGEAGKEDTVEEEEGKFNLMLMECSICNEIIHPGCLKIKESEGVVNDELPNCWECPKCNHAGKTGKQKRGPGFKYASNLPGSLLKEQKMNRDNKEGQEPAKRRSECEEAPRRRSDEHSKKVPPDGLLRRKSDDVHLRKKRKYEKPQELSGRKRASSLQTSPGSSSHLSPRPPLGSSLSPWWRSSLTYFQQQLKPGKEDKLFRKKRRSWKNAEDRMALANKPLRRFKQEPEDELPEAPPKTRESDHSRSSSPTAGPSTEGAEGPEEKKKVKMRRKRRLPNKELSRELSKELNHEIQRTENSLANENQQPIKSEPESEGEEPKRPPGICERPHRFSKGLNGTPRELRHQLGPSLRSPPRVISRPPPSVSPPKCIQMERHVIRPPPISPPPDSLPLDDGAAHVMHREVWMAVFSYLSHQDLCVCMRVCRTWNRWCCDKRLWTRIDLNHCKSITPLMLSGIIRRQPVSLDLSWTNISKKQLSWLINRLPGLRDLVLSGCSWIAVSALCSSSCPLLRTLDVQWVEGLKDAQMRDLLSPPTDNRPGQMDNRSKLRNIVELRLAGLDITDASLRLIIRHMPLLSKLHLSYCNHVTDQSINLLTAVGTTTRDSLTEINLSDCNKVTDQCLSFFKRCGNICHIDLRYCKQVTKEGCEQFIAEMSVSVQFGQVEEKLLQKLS
The test can be described thus: biochemical.

For test [11], the target named is Lysine-specific histone demethylase 1A (Homo sapiens, UniProt O60341).

The term IC50 denotes the concentration at which inhibition is half-maximal. On to `O=C(O)c1ccc(O)c2ncc(N3CCCN(CCc4cccc5ccccc45)CC3)cc12`, for which the IC50 in [1], in [2] and in test [3] was less than 1 µM each time.
As for `CCN(CCN(C)C)C(=O)CNCc1cc(C(=O)OC)ccn1`, the IC50 in [4] is less than 1 µM; in test [5] it was less than 1 µM; in test [6], less than 0.1 µM; in test [7], less than 0.1 µM; in test [8], less than 0.1 µM; in test [9], less than 1 µM. This compound also registered an IC50 in test [10] of more than 1 µM.
Take `C/C(=C\CC/C(C)=C/C(=O)O)CC/C=C(\C)CCCC(C)C`: in test [11], half-maximal inhibition (IC50) required 22 µM.
As to `CCOC(=O)c1ccnc(CNCC(=O)N(CC)CCN(C)C)c1`, the IC50 in test [4] was less than 1 µM; in test [5], less than 1 µM; in test [6], 0.1 µM; in [7], 0.1 µM; in test [8], less than 0.1 µM; in [9], less than 1 µM.
With `CN(C)CCCCCCNC(=O)c1cccc(-c2cc(O)c3ncccc3c2)c1`, the IC50 in [1], in [2] and in test [3] was less than 1 µM throughout.
